# Article PMC8305389, “Tuning Photodynamic Properties of BODIPY Dyes, Porphyrins’ Little Sisters” (Molecules, 2021)
# Marks after values point to notes of the source that are not given here.
# What was measured:
# [1] = Absorption and fluorescence measurements (quantum yield, lifetime); assay type: physicochemical; settings: MeOH
# Protocol: The singlet oxygen quantum yields (ΦΔ) and the fluorescence quantum yields (ΦF) of tested samples in MeOH were determined using published comparative (relative) methods with rhodamin-G6 used as a reference for fluorescence (ΦF = 0.94 in EtOH [31]), and bengal rose as a reference for singlet oxygen determinations (ΦΔ = 0.76 in MeOH [32]). Singlet oxygen measurements were performed with 1,3-diphenylisobenzofuran as the chemical scavenger of singlet oxygen by monitoring its decomposition at 417 nm. The ΦF values were also determined by an absolute method using an integrating sphere in an FLS1000 fluorimeter (Edinburgh Instruments, Edinburgh, UK). Fluorescence lifetimes were measured on the same fluorimeter upon excitation by HPL510 laser (Edinburgh Instruments, λ = 506.1 nm).
# SK-MEL-28 cells [2] = assay: Dark toxicity (without irradiation), Neutral Red uptake; assay type: cell-based, human; settings: 24 h in the dark, compounds precipitated over listed values
# Protocol: (§1) The human cervical carcinoma (HeLa) and human melanoma (SK-MEL-28) cell lines were purchased from the American Type Cell Culture Collection (ATCC; Manassas, VA, USA). Both cell lines were cultured in Dulbecco’s modified Eagle’s medium (DMEM) without phenol red (Lonza, Verviers, Belgium) and supplemented with 10% heat-inactivated fetal bovine serum (Sigma-Aldrich (Merck, Darmstadt, Germany), 1% penicillin/streptomycin solution (Lonza), 10 mM HEPES buffer (Lonza), and 4 mM ultraglutamine I (alanyl-L-glutamine; Lonza). The cell lines were cultured in 75 cm^2 tissue culture flasks (TPP, Trasadingen, Switzerland) and maintained in a CO2 incubator at 37 °C in a humidified atmosphere of 5% CO2 and subcultured every 3−4 days. For the cytotoxicity experiments (phototoxicity and dark toxicity), cells were seeded into 96-well plates (TPP) at a density of 7.5 × 10^3 (HeLa and SK-MEL-28) cells per well for 24 h.
# (§2) Stock solutions of the investigated compounds were prepared in DMSO at a concentration of 0.5 mM (4b) or 1 mM (all other compounds) and were sterilized by filtration through 0.22 μm syringe MCE filters. The stock solutions were diluted by the above-mentioned cell culture medium to the required concentrations. The maximum DMSO concentration in the medium in the experiments was 1% (2% in case of cpd. 4b). Cytoxicity of DMSO at corresponding concentrations (without studied compounds) was assessed in all cytotoxicity experiments as well—no toxicity against SK-MEL-28 or HeLa cells was observed.
# To assess dark toxicities (inherent toxicities of the studied compounds without irradiation), SK-MEL-28 cells were treated with studied PSs for 24 h in the dark. Viability was evaluated after two washing steps using the Neutral Red (NR; Sigma-Aldrich (Merck, Darmstadt, Germany) uptake assay, based on the ability of the living cells to incorporate NR into their intact lysosomes (concentration of NR in cell culture medium was 30 μg/mL and incubation time with NR was 2 h). The absorbance of soluble NR in cell lysate was measured at λ = 540 nm using a Tecan Infinite 200 M plate reader (Tecan, Männedorf, Switzerland). The viability of each experimental group was expressed as the percentage of the untreated controls incubated under the same conditions (100%). After staining (before lysis), the cells were briefly investigated under the microscope to verify changes in cellular morphology and the presence of NR in lysosomes (orange-red spots in the cells). These observations were in agreement with NR measurements.
# (§3) The concentrations of the studied compounds that induced a 50% decrease in cellular viability after treatment under the dark conditions (TC50, the median toxic concentration) or after the photodynamic treatment (EC50, the median effective concentration) were calculated using GraphPad Prism software (version 9.1.2; GraphPad Software, Inc., San Diego, CA, USA) for each independent experiment. The data are presented as the means ± standard deviations of these values.
# [3] = Photobleaching in serum-containing cell culture medium; assay type: physicochemical; settings: 10 µM, 1 h of irradiation, 500W halogen lamp
# Protocol: The photobleaching experiments were performed in a serum-containing cell culture medium at a concentration of 10 µM. The samples were prepared by direct dilution from the 1 mM DMSO stock solution (0.5 mM in case of 4b). The quartz cuvette with the sample (2.5 mL) was irradiated by the 500W halogen lamp (Tip) from a distance of 60 cm at room temperature. The light was filtered through a 7 cm water filter to eliminate heat. The absorption spectra were collected every 10 min. The experiment was performed in triplicate.
# [4] = tested on: human cervical carcinoma (HeLa) cells; assay: Photodynamic activity (phototoxicity) after light activation, Neutral Red uptake; assay type: cell-based; settings: Homo sapiens, light or radiation study; HeLa; 12 h incubation; λ > 455 nm, 15.3 mW cm−2, 15 min, 13.7 J cm−2
# Protocol: as §1, §2
# (§4) For the photodynamic activity assessment experiments (phototoxicity), both HeLa and SK-MEL-28 cells were incubated overnight (12 h) with the studied compounds. The cells were then carefully and swiftly washed twice with a prewarmed sterile phosphate-buffered saline, fresh cell culture medium was added, and cells were subsequently irradiated for 15 min using a 450 W ozone-free Xe lamp (Newport; intensity reduced to 400 W). The lamp was equipped with a long-pass filter (Newport 20CGA-455) and an 8-cm water filter to cut off undesirable wavelengths and heat radiation, respectively (λ > 455 nm, 15.3 mW cm^−2, 15 min, 13.7 J cm^−2). Cellular viability was measured after an additional 24 h by the above-mentioned NR uptake assay. At least four independent experiments, each in triplicate, were performed.
# as §3
# [5] = tested on: human melanoma (SK-MEL-28) cells; assay: as above; assay type: cell-based
# Protocol: as §1, §2, §4, §3
# HeLa cells [6] = tested on: HeLa cells; parameters: method as in PMID 27682881; settings: cited from earlier work; for EC50: HeLa, λ > 570 nm, 12.4 mW cm−2, 15 min, 11.2 J cm−2, read-out: EC50, photodynamic activity; for TC50/EC50, phototherapeutic index: on HeLa cells
# HeLa cells [7] = tested on: HeLa cells; parameters: method as in PMID 27682881; settings: on HeLa cells; cited from earlier work
# [8] = parameters: method as in PMID 10546544; settings: in MeOH; cited from earlier work
# SK-MEL-28 cells [9] = assay: RealTime-Glo Annexin V Apoptosis and Necrosis Assay (cell death determination); assay type: cell-based, human; settings: TRAIL 400 ng/mL, paclitaxel 1 μM, digitonin 25 μg/mL
# Source text: A RealTime-Glo™ Annexin V Apoptosis and Necrosis Assay (Promega, Madison, WI, USA) was utilized for the real-time assessment of cell death. This monitors phosphatidylserine exposure on the outer leaflet of the cytoplasmic membrane (increase in luminescence signal) together with binding of the membrane-impermeable probe to DNA (increase in fluorescence signal) that accompanies a loss of membrane integrity, typical for late stages of apoptosis (secondary necrosis) or necrotic type of cell death. According to the manufacturer, this assay uses Annexin V fusion proteins containing complementary subunits of luciferase (Annexin V-LgBiT and Annexin V-SmBiT). The luminescence signal is low until both subunits bind to phosphatidylserine, and in close vicinity form functional luciferase.
# For this assay, SK-MEL-28 cells were seeded onto 96-well white clear-bottom plates (Corning, New York, NY, USA) in a 1:1 mixture of DMEM and CO2 independent medium (Gibco; supplemented with 10% FBS, 1% penicillin/streptomycin solution and 4 mM ultraglutamine I). The next day, the medium was replaced with a fresh CO2 independent medium, and cells were incubated overnight. The next day, studied PSs dissolved in a CO2 independent medium in concentrations corresponding to their EC85 were added as described above. […] After mixing, samples were placed into a plate reader with a temperature control (Tecan Spark, Männedorf, Switzerland) and measured each 15 min for 24 h—luminescence (200 ms integration time) and fluorescence (λexc = 485 nm; λemi = 530 nm, BPexc/emi = 20 nm; 10 flashes per well, 40 μs integration time).
# Digitonin (25 μg/mL), TRAIL (400 ng/mL), and paclitaxel (1 μM) were used as positive controls for membrane-disturbing-agent induced necrosis, extrinsic-pathway-mediated apoptosis, and intrinsic-pathway-mediated apoptosis, respectively. Cell-free wells (no-cell controls) were used to subtract background luminescence and fluorescence for each time point. […]
# [10] = parameters: method as in doi:10.1016/0009-2614(96)00838-X; settings: in EtOH; cited from earlier work
molecule,measurement,setting,value
"CC1=CC(C)=[N+]2C1=C(c1ccc(OCCCCCN3C(=O)c4ccccc4C3=O)cc1)c1c(C)cc(C)n1[B-]2(F)F [2a, 1,3,5,7-Tetramethyl-8-{4-[5-(phthalimidyl)pentyloxy]phenyl}-4,4-difluoro-4-bora-3a,4a-diaza-s-indacene]",absorption maximum (λmax),[1],498 nm
same,emission maximum (λF),[1],507 nm
same,extinction coefficient (log ε),[1]; at λmax,4.77
same,"fluorescence quantum yield, absolute method (ΦF(absol))",[1]; integrating sphere,0.52
same,"fluorescence quantum yield, relative method (ΦF(relat))",[1]; rhodamin-G6 as reference,0.49
same,fluorescence lifetime (τF),[1]; λexc = 506.1 nm,3.27 ns
same,"TC50, dark toxicity",SK-MEL-28 cells [2],>10^b μM
same,"absorption remaining, of the original value, after irradiation (photobleaching)",[3],approximately 87%
same,EC50,[4],3.6 ± 0.19 µM
same,"TC50/EC50, phototherapeutic index",[5],>3.92
same,EC50,"[5]; Homo sapiens, light or radiation study, 12 h incubation, λ > 455 nm, 15.3 mW cm−2, 15 min, 13.7 J cm−2",2.55 ± 0.14 µM
CN(C)c1ccc2nc3ccc(=[N+](C)C)cc-3sc2c1 [Methylene blue],EC50,HeLa cells [6],5.15 ± 1.93 µM
same,"TC50/EC50, phototherapeutic index",HeLa cells [6],4.4 ^d
same,"TC50, dark toxicity",HeLa cells [7],22.7 ± 7.9 ^d μM
"C=CC1=C(C)c2cc3[nH]c(cc4nc(cc5[nH]c(cc1n2)c(C)c5CCC(=O)O)C(CCC(=O)O)=C4C)c(C)c3C=C [Pp IX, protoporphyrin IX]",EC50,HeLa cells [6],0.8 ± 0.13 µM
same,"TC50/EC50, phototherapeutic index",HeLa cells [6],>10 ^d
same,"TC50, dark toxicity",HeLa cells [7],">10 ^b,d μM"
O=C(O)c1c(Cl)c(Cl)c(Cl)c(Cl)c1-c1c2cc(I)c(=O)c(I)c-2oc2c(I)c(O)c(I)cc12 [bengal rose],singlet oxygen quantum yield (ΦΔ) of reference,[8],0.76
C[C@@H]1CC[C@@]2(OC1)O[C@H]1[C@@H](O)[C@H]3[C@@H]4CC[C@H]5C[C@@H](O[C@@H]6O[C@H](CO)[C@H](O[C@@H]7O[C@H](CO)[C@@H](O)[C@H](O[C@@H]8OC[C@@H](O)[C@H](O)[C@H]8O)[C@H]7O[C@@H]7O[C@H](CO)[C@H](O)[C@H](O[C@@H]8O[C@H](CO)[C@@H](O)[C@H](O)[C@H]8O)[C@H]7O)[C@H](O)[C@H]6O)[C@H](O)C[C@]5(C)[C@H]4CC[C@]3(C)[C@H]1[C@@H]2C [digitonin],"delay between luminescence (Annexin V) and fluorescence (DNA probe) signal surge, positive controls",SK-MEL-28 cells [9],simultaneous and immediate rise in luminescence and fluorescence
CC(=O)O[C@H]1C(=O)[C@@]2(C)[C@H]([C@H](OC(=O)c3ccccc3)[C@]3(O)C[C@H](OC(=O)[C@H](O)[C@@H](NC(=O)c4ccccc4)c4ccccc4)C(C)=C1C3(C)C)[C@]1(OC(C)=O)CO[C@@H]1C[C@@H]2O [paclitaxel],"delay between luminescence (Annexin V) and fluorescence (DNA probe) signal surge, positive controls",SK-MEL-28 cells [9],~11.5 h
CCN=c1cc2oc3cc(NCC)c(C)cc3c(-c3ccccc3C(=O)OCC)c-2cc1C.Cl [rhodamin-G6],fluorescence quantum yield (ΦF) of reference,[10],0.94
Oc1cccc(-c2c3nc(c(-c4cccc(O)c4)c4ccc([nH]4)c(-c4cccc(O)c4)c4nc(c(-c5cccc(O)c5)c5ccc2[nH]5)CC4)C=C3)c1 [temoporfin],EC50,HeLa cells [6],0.045 ± 0.007 µM
same,"TC50/EC50, phototherapeutic index",HeLa cells [6],460 ^d
same,"TC50, dark toxicity",HeLa cells [7],20.6 ± 2.5 ^d μM
"TRAIL: inducer of extrinsic-pathway apoptosis, positive control (protein, UniProt P50591 1-281, looked up) Tumor necrosis factor ligand …: MAMMEVQGGPSLGQTCVLIVIFTVLLQSLCVAVTYVYFTNELKQMQDKYSKSGIACFLKEDDSYWDPNDEESMNSPCWQVKWQLRQLVRKMILRTSEETISTVQEKQQNISPLVRERGPQRVAAHITGTRGRSNTLSSPNSKNEKALGRKINSWESSRSGHSFLSNLHLRNGELVIHEKGFYYIYSQTYFRFQEEIKENTKNDKQMVQYIYKYTSYPDPILLMKSARNSCWSKDAEYGLYSIYQGGIFELKENDRIFVSVTNEHLIDMDHEASFFGAFLVG","delay between luminescence (Annexin V) and fluorescence (DNA probe) signal surge, positive controls",SK-MEL-28 cells [9],approximately 3.5 h
